One assay has as its system PDS. The settings on record: in vitro (Trebst, 1997); cited from earlier work.
The test system of the next assay is tobacco plants. Description: Carotenoid content (phytoene accumulation) of treated tobacco plants, HPLC. Type of assay: in vivo, Nicotiana tabacum. The following applies: tobacco plants treated with norflurazon; comparator for PDS antisense lines.
In the next assay the target is Erwinia uredovora PSY (Pantoea ananas, UniProt P21683). The following applies: overexpressed Erwinia uredovora PSY (Neudert, 1998); read-out: pI valve (inhibition of phytoene synthase); cited from earlier work.
Erwinia uredovora PSY, sequence (P21683 whole entry): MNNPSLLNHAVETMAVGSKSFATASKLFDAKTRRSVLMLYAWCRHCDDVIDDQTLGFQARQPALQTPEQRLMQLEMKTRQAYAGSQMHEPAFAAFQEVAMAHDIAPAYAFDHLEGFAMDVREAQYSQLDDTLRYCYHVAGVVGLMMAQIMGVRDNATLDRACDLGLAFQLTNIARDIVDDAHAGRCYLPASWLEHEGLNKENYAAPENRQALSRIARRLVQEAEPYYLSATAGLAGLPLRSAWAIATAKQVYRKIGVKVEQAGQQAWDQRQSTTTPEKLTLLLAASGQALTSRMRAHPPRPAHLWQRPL

pIC50: −log10 of the molar value.

Take `CNc1cnn(-c2cccc(C(F)(F)F)c2)c(=O)c1Cl` [norflurazon]: the “photosystem II activity following inhibition of PDS” value in the assay with PDS is “loss of photosystem II activity”. In the assay on tobacco plants, the accumulation of phytoene result was “very high accumulation of phytoene”.
Take `C=C(CC[C@]12O[C@H](C(=O)O)[C@@](O)(C(=O)O)[C@](C(=O)O)(O1)[C@H](OC(=O)/C=C/[C@@H](C)C[C@@H](C)CC)[C@H]2O)[C@@H](OC(C)=O)[C@H](C)Cc1ccccc1` [squalestatin]: at Erwinia uredovora PSY, the pIC50 is 4.82.
In the case of fluridone, the “photosystem II activity following inhibition of PDS” value in the assay on PDS is recorded as “loss of photosystem II activity”.

Source of the values: patent US20020128464A1, “Method of finding modulators of enzymes of the carotenoid biosynthetic pathway” (priority 2000, published 2002).
